The text below walks through data of US20100261719A1, “CHEMICAL COMPOUNDS” (priority 2007, published 2010).

Usually IC50 stands for the point on the concentration scale where inhibition reaches its midpoint.

The target of one assay is Escherichia coli DNA gyrase A/B tetramer (Escherichia coli, UniProt P0AES4+P0AES6). In words: DNA gyrase supercoiling activity fluorescence polarisation assay. The class given is biochemical.
Escherichia coli DNA gyrase A/B tetramer, sequence (P0AES4 whole entry, one chain of several): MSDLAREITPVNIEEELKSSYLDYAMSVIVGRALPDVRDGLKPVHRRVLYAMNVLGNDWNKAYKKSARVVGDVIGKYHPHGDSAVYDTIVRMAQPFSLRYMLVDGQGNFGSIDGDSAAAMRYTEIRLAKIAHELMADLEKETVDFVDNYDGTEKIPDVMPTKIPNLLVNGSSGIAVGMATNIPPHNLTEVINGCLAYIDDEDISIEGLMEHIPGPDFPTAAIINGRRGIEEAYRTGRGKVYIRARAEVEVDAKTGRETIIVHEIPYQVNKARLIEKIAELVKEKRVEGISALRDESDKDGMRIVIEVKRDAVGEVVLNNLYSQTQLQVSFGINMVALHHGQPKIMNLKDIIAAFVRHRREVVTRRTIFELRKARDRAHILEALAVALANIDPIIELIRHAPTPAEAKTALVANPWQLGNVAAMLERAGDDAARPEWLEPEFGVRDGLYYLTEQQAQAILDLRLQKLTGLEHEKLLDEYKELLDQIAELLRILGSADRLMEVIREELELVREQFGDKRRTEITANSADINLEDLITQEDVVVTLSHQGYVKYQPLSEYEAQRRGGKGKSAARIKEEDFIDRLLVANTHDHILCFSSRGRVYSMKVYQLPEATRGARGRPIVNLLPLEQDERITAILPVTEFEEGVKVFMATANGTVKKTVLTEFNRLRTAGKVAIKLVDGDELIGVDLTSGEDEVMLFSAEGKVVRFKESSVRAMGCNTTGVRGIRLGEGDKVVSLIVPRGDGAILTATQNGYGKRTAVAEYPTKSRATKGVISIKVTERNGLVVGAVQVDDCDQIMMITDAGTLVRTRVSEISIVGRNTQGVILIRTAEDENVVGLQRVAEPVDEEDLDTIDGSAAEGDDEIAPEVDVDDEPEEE
Conditions: not given
Here is the method:
In a black, 384-well polystyrene assay plate, 30 microliters/well of 5 nM Escherichia coli DNA gyrase A/B tetramer and 130 micrograms/ml of topologically relaxed plasmid containing the triplex-forming sequence […] in an assay buffer consisting of 35 mM Tris-HCl (pH 7.5), 24 mM KCl, 4 mM MgCl2, 2 mM dithiothreitol, 1.8 mM spermidine, 5% (v/v) glycerol, 200 nM bovine serum albumin, 0.8% dimethylsulfoxide, and 0.3 mM ATP may be incubated at ambient temperature for (typically 30 minutes) in the absence or presence of 5-10 different concentrations of test compound. The supercoiling reactions may be quenched by the addition of 10 microliters/well of 40 nM oligodeoxynucleotide probe in 3× triplex-forming buffer consisting of 150 mM NaCl, and 150 mM sodium acetate at pH 3.5. The oligodeoxynucleotide probe may be 5′-BODIPY-FL-labeled TTCTTCTTC. After 60 minutes, the fluorescence anisotropy of the BODIPY-FL may be measured in a Tecan Ultra plate reader, using 485 nm excitation and 535 nm emission filters equipped with polarizers. The IC50 may be determined by nonliner regression using two control reactions. The first contains no test compound but 0.8% DMSO (100% activity) while the second control reaction contains 5 uM Ciprofloxacin and 0.8% DMSO (0% activity).
When tested in an in-vitro assay based on the DNA gyrase supercoiling activity fluorescence polarisation assay described above, the E. coli DNA gyrase supercoiling IC50 assay inhibitory activity of the following Examples was measured at the indicated IC50.
Background: Polarisation of emitted light reports the rotation of a fluorescent probe.
`C[C@@H]1CN2c3c(cc(C(=O)NC4CCCN(C)C4)c(F)c3F)CC3(C(=O)NC(=O)NC3=O)[C@H]2[C@H](C)O1` (relative stereo) [Example 69, (2R,4S,4aS)-rel-9,10-Difluoro-2,4-dimethyl-N-(1-methylpiperidin-3-yl)-2′,4′,6′-trioxo-1,1′,2,3′,4,4′,4a,6′-octahydro-2′H,6H-spiro[1,4-oxazino[4,3-a]quinoline-5,5′-pyrimidine]-8-carboxamide] yielded a half-inhibitory concentration (IC50) of 8.68 µM. Same read-out and setting: in the case of `C[C@@H]1CN2c3c(cc(/C=N/N4CCCC4)c(F)c3F)CC3(C(=O)NC(=O)NC3=O)[C@H]2[C@H](C)O1` (relative stereo) [Example 21, (2R,4S,4 aS)-rel-9,10-Difluoro-2,4-dimethyl-8-[(E)-(pyrrolidin-1-ylimino)methyl]-1,2,4,4a-tetrahydro-2′H,6H-spiro[1,4-oxazino[4,3-a]quinoline-5,5′-pyrimidine]-2′,4′,6′(1′H,3′H)-trione] it was 2.25 µM; in that of `C[C@@H]1CN2c3c(cc(C#Cc4cnccn4)c(F)c3F)CC3(C(=O)NC(=O)NC3=O)[C@H]2[C@H](C)O1` [Example 79, (2R,4S,4aS)-9,10-Difluoro-2,4-dimethyl-8-(pyrazin-2-ylethynyl)-2,4,4a,6-tetrahydro-1H,1′H-spiro[[1,4]oxazino[4,3-a]quinoline-5,5′-pyrimidine]-2′,4′,6′(3′H)-trione], 0.4 µM. On the same count and under the same terms, in the case of `CC(=O)N/N=C/c1cc2c(c(F)c1F)N1C[C@@H](C)O[C@@H](C)[C@@H]1C1(C2)C(=O)NC(=O)NC1=O` (relative stereo) [Example 23, N′-{(E)-[(2R,4S,4aS)-rel-9,10-Difluoro-2,4-dimethyl-2′,4′,6′-trioxo-1,1′,2,3′,4,4′,4a,6′-octahydro-2′H,6H-spiro[1,4-oxazino[4,3-a]quinoline-5,5′-pyrimidin]-8-yl]methylidene}acetohydrazide] it was 1.03 µM; in that of `C[C@H]1CN2c3c(cc(C#Cc4cn(C)cn4)c(F)c3F)CC3(C(=O)NC(=O)NC3=O)[C@@H]2[C@@H](C)O1` (racemic) [Example 13, (2S,4R,4aR)-rel-9,10-Difluoro-2,4-dimethyl-8-[(1-methyl-1H-imidazol-4-yl)ethynyl]-1,2,4,4a-tetrahydro-2′H,6H-spiro[1,4-oxazino[4,3-a]quinoline-5,5′-pyrimidine]-2′,4′,6′-(1′H,3′H)-trione], 2.17 µM; in that of `C[C@@H]1CN2c3c(F)cc(C#Cc4nccs4)cc3CC3(C(=O)NC(=O)NC3=O)[C@H]2[C@H](C)O1` (relative stereo) [Example 38, (2R,4S,4aS)-rel-10-Fluoro-2,4-dimethyl-8-(1,3-thiazol-2-ylethynyl)-1,2,4,4a-tetrahydro-2′H,6H-spiro[1,4-oxazino[4,3-a]quinoline-5,5′-pyrimidine]-2′,4′,6′(1′H,3′H)-trione], 0.76 µM. `C[C@@H]1CN2c3ccc(C#Cc4nccn4C)cc3CC3(C(=O)NC(=O)NC3=O)[C@H]2[C@H](C)O1` (relative stereo) [Example 4, (2R,4S,4aS)-rel-2,4-Dimethyl-8-[(1-methyl-1H-imidazol-2-yl)ethynyl]-1,2,4,4a-tetrahydro-2′H,6H-spiro[1,4-oxazino[4,3-a]quinoline-5,5′-pyrimidine]-2′,4′,6′(1′H,3′H)-trione]: half-maximal inhibition (IC50) was put at 0.63 µM.

The assay is the same for the next values; noted with them: 5 nM enzyme, 0.3 mM ATP, relaxed plasmid, fluorescence anisotropy readout; read-out: E. coli DNA gyrase supercoiling IC50.
In the case of “(2R,4S,4aS)-rel-9,10-Difluoro-2,4-dimethyl-8-[(E)-(morpholin-4-ylimino)methyl]-1,2,4,4a-tetrahydro-2′H,6H-spiro[1,4-oxazino[4,3-a]quinoline-5,5′-pyrimidine]-2′,4′,6(1′H,3′H)-trione [Example 22]”, the concentration for half-maximal inhibition (IC50) stood at 1.57 µM.

For the compound `C[C@@H]1CN2c3c(F)cc(C#Cc4cncs4)cc3CC3(C(=O)NC(=O)NC3=O)[C@H]2[C@H](C)O1` (relative stereo) [Example 39, (2R,4S,4aS)-rel-10-Fluoro-2,4-dimethyl-8-(1,3-thiazol-5-ylethynyl)-1,2,4,4a-tetrahydro-2′H,6′-spiro[1,4-oxazino[4,3-a]quinoline-5,5′-pyrimidine]-2′,4′,6′(1′H,3′H)-trione], the IC50 was found to be 0.87 µM.
